Test results: patent US20050209288A1, “Compositions comprising (S)-amlodipine malate and an angiotensin receptor blocker and methods of their use” (priority 2004, published 2005)

Legend:
Assay type in all cases: in vivo, rat
rats [1] = test: Phase III: dose response to (S)-amlodipine malate in absence and presence of an ARB (co-administration); conditions: for dose response curve of ARB plus (S)-amlodipine malate relative to (S)-amlodipine malate alone: ARB at its ED30 dose; for Potential Dosage Adjustment (%) of (S)-amlodipine malate (adjustment factor): co-administration with the named ARB, relative to ED50 92 μg/kg alone
Experimental: (§1) (S)-amlodipine malate and seven ARBs (candasartan, eprosartan, irbesartan, losartan, olmesartan, telmisartan and valsartan) were evaluated. The study was conducted in three parts. Phase I evaluated the time-course of the hypotensive actions of all eight agents ([S]-amlodipine and the seven ARBs). In Phase II, the dose-responsive effects of [S]-amlodipine malate and the seven ARBs were evaluated individually. From this phase of the study, ED30 and ED50 doses of each of the seven ARBs were identified, defined as the dose that produced 30 or 50 percent of the hypotensive effect produced by a rapid i.v. injection (30 μg/kg) of sodium nitroprusside (NTP), a short-acting vasodilator. In Phase III, the dose response to [S]-amlodipine was evaluated in the presence and absence of the ED30 and ED50 dose of each of the seven ARBs, with the objective of comparing the extent to which each ARB, at its ED30 or ED50, shifted the dose-response curve of [S]-amlodipine to the left and thus, lowering the apparent ED50 of the calcium channel blocker.
(§2) Animals were anesthetized with thiobutabarbital sodium (Inactin®, 150 mg/kg, delivered i.p.), tracheotomized and placed on a thermostatically controlled heating pad (37-38° C.). The jugular vein and the carotid artery were cannulated with PE-50 tubing for drug administration and recording of cardiovascular parameters, respectively. Blood pressure was recorded from the carotid artery by means of a pressure transducer and heart rate was derived electronically from the blood pressure signal. The signal output derived electronically from the arterial pressure was analyzed with a digital computer. The software IOX-16 continuously recorded the data every 5 sec during the entire procedure for each rat. Raw arterial pressure (in mmHg) and heart rate (beats per min), as well as changes in these two parameters relative to baseline or pre-drug levels (for doses other than initial dose), both in raw units (mm Hg or beats per min [bpm]) and as percentage change from baseline were captured and analyzed. The animals were allowed to equilibrate for 15-20 min before any treatment.
(§3) Doses are expressed in terms of free active substance. Each treatment was administered in a volume of 1 mL/kg by slow (over 20-30 seconds) i.v. bolus for all test articles, in all three phases.
(§4) The data were reported as mean ±S.E.M. (standard error of the mean) from 3-5 rats per group. Raw arterial pressure (in mmHg) and heart rate (beats per min), as well as changes in these two parameters relative to baseline or pre-drug levels (for doses other than initial dose), both in raw units (mmHg or beats per min [bpm]) and as percentage change from baseline, were captured and analyzed.
(§5) ED30 and ED50 for each drug were defined as the dose causing a decline in arterial pressure corresponding to 30% and to 50%, respectively, of the maximal drop in blood pressure produced by fast bolus i.v. injection (30 μg/kg) of sodium nitroprusside.
Dose-response curves with (S)-amlodipine malate in the absence and presence of each of the seven ARBs at its ED30 are shown in FIGS. 1A and 1B. The data shown in the figures are from experiments in which ED30 doses of each of the ARBs was combined with (S)-amlodipine malate. These were chosen because ED30 doses were obtainable by direct interpolation of dose response curves from Phase II. For several of the ARBs, doses corresponding to ED50 were obtained from extrapolation of their dose response curves.

rats [2] = conditions: anesthetized rats, 100 μg/kg i.v.
Experimental: as §1
as §2, with “The animals were allowed to equilibrate for 15-20 min before any treatment.” left out

rats [3] = test: Phase II: dose-response of hypotensive effect, ED30/ED50 relative to sodium nitroprusside
Experimental: as §1, §2, §3, §4, §5
In this phase, the hypotensive response to sodium nitroprusside (NTP, 30 μg/kg, i.v. bolus), which was injected once at the end of the equilibration period, was used as a comparator and ED30 and ED50 doses were estimated as the percentage of the maximum NTP effect.

[4] = i.v., anesthetized rats, from dose-response curve

SMILES | ED30 (dose causing 30% of the maximal drop in blood pressure produced by sodium nitroprusside) (rats [3]; [4]) [mg/kg] | dose response curve of ARB plus (S)-amlodipine malate relative to (S)-amlodipine malate alone (rats [1]) | Potential Dosage Adjustment (%) of (S)-amlodipine malate (adjustment factor) (rats [1]) [%] | also measured
CCOC(=O)C1=C(COCCN)NC(C)=C(C(=O)OC)[C@@H]1c1ccccc1Cl.O=C(O)C[C@H](O)C(=O)O [(S)-amlodipine malate] | 0.056 |  |  | ED50 of (S)-amlodipine malate in the absence of an ARB (rats [1]; i.v., anesthetized rats, Phase III): 0.092 mg/kg; maximum decrease in blood pressure (rats [2]): 14-17 mmHg; time to maximum hypotensive effect post-injection (rats [2]): 35 to 55 min; ED50 (dose causing 50% of the maximal drop in blood pressure produced by sodium nitroprusside), estimated (rats [3]; [4]): 0.11 mg/kg
CCOc1nc2cccc(C(=O)O)c2n1Cc1ccc(-c2ccccc2-c2nnn[nH]2)cc1 [Candasartan, 2-ethoxy-1-[[2′-(1H-tetrazol-5-yl)[1,1′-biphenyl]-4-yl]methyl]-1H-benzimidazole-7-carboxylic acid] | 0.008 | offset |  | decline in MBP at the next higher dose (rats [3]; 300 mg/kg i.v. (so in the source)): no further decline
CCCCc1ncc(/C=C(\Cc2cccs2)C(=O)O)n1Cc1ccc(C(=O)O)cc1 [Eprosartan, (E)-α-[[2-butyl-1-[(4-carboxyphenyl)methyl]-1H-imidazol-5-yl]methylene]-2-thiophenepropanoic acid] |  |  | 24 | 
CCCCC1=NC2(CCCC2)C(=O)N1Cc1ccc(-c2ccccc2-c2nnn[nH]2)cc1 [Irbesartan, 2-butyl-3-[[2′-(1H-tetrazol-5-yl)[1,1′-bephenyl]-4-yl]methyl]-1,3-diazaspiro[4,4]non-1-en-4-one] |  |  | 23 | 
CCCCc1nc(Cl)c(CO)n1Cc1ccc(-c2ccccc2-c2nnn[nH]2)cc1 [Losartan, 2-butyl-4-chloro-1-[[2′-(1H-tetrazol-5-yl)[1,1′-biphenyl]-4-yl]methyl]-1H-imidazole-5-methanol] |  |  | 15 | 
CCCc1nc2c(C)cc(-c3nc4ccccc4n3C)cc2n1Cc1ccc(-c2ccccc2C(=O)O)cc1 [Telmisartan, 4′-[(1,4′-dimethyl-2′-propyl[2,6′-bi-1H-benzimidazol]-1′-yl)methyl]-[1,1′-biphenyl]-2-carboxylic acid] |  | offset |  | 
CCCCC(=O)N(Cc1ccc(-c2ccccc2-c2nnn[nH]2)cc1)[C@H](C(=O)O)C(C)C [Valsartan, N-(1-oxopentyl)-N-[[2′-(1H-tetrazol-5-yl)[1,1′-biphenyl]-4-yl]methyl]-L-valine] | 0.229 | greatest leftward shift | 32 | time to maximum hypotensive effect post-injection (rats [2]): five
